From patent publication US20090209507A1, “15-O-Desmethylmacbecin Derivatives and Their Use in the Treatment of Cancer or B-Cell Malignancies” (priority 2006, published 2009)

Key:
[1] = system: Reverse transcriptase; settings: cited from earlier work
[2] = target: terminal deoxynucleotidyl transferase (Homo sapiens, UniProt P04053); settings: cited from earlier work
[3] = system: MEXF 394NL; assay: monolayer proliferation assay (modified propidium iodide assay), MEXF 394NL; type: cell-based, human; settings: MEXF 394NL (Melanoma), 4 days continuous exposure
Method: (§1) In vitro evaluation of compounds for anticancer activity in a panel of human tumour cell lines in a monolayer proliferation assay was carried out at the Oncotest Testing Facility, Institute for Experimental Oncology, Oncotest GmbH, Freiburg.
(§2) The Oncotest cell lines were established from human tumor xenografts as described by Roth et al., (1999). The origin of the donor xenografts was described by Fiebig et al., (1999). Other cell lines are either obtained from the NCI (DU145, MCF-7) or purchased from DSMZ, Braunschweig, Germany.
(§3) All cell lines, unless otherwise specified, were grown at 37° C. in a humidified atmosphere (95% air, 5% CO2) in a ‘ready-mix’ medium containing RPMI 1640 medium, 10% fetal calf serum, and 0.1 mg/mL gentamicin (PAA, Cölbe, Germany).
(§4) A modified propidium iodide assay was used to assess the effects of the test compound(s) on the growth of the human tumour cell lines (Dengler et al., (1995)).
(§5) Briefly, cells were harvested from exponential phase cultures by trypsinization, counted and plated in 96 well flat-bottomed microtitre plates at a cell density dependent on the cell line (5-10.000 viable cells/well). […] After thawing the plates, fluorescence was measured using the Cytofluor 4000 microplate reader (excitation 530 nm, emission 620 nm), giving a direct relationship to the total number of viable cells.
(§6) Growth inhibition is expressed as treated/control×100 (% T/C). […]

[4] = system: CXF HT29; assay: monolayer proliferation assay (modified propidium iodide assay), CXF HT29; type: cell-based, human; settings: CXF HT29 (Colon), 4 days continuous exposure
Method: as §1, §2, §3, §4, §5, §6

[5] = system: LXF 1121L; assay: monolayer proliferation assay (modified propidium iodide assay), LXF 1121L; type: cell-based, human; settings: LXF 1121L (Lung, large cell ca), 4 days continuous exposure
Method: as §1, §2, §3, §4, §5, §6

[6] = system: MCF-7; assay: monolayer proliferation assay (modified propidium iodide assay), MCF-7; type: cell-based, human; settings: MCF-7 (Breast), 4 days continuous exposure
Method: as §1, §2, §3, §4, §5, §6

[7] = system: CNXF 498NL; assay: monolayer proliferation assay (modified propidium iodide assay), CNXF 498NL; type: cell-based, human; settings: CNXF 498NL (CNS), 4 days continuous exposure
Method: as §1, §2, §3, §4, §5, §6

[8] = system: DU145; assay: monolayer proliferation assay (modified propidium iodide assay), DU145; type: cell-based, human; settings: DU145 (Prostate - PTEN positive), 4 days continuous exposure
Method: as §1, §2, §3, §4, §5, §6

Chain of terminal deoxynucleotidyl transferase (P04053 whole entry, species assumed): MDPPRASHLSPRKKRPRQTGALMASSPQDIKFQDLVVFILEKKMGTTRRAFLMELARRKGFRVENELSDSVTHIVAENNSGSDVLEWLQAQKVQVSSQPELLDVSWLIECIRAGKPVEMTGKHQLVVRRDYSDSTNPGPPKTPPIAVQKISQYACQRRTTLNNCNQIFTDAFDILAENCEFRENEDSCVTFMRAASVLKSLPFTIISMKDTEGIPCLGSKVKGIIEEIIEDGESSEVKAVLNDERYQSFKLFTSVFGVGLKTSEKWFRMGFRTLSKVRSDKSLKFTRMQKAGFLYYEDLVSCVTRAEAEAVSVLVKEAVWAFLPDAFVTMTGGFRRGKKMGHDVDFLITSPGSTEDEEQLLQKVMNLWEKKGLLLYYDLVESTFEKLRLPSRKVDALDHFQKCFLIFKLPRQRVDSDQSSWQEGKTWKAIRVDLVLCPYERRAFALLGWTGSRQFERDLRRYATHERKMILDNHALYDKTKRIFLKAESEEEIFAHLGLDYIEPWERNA

Structure (SMILES) | Reverse transcriptase activity inhibition [1] | terminal deoxynucleotidyl transferase activity inhibition [2] | Test/Control (%) at drug concentration ([3]; 1 μg/mL) | Test/Control (%) at drug concentration ([3]; 10 μg/mL) | Test/Control (%) at drug concentration ([4]; 1 μg/mL) | Test/Control (%) at drug concentration ([4]; 10 μg/mL) | Test/Control (%) at drug concentration ([5]; 1 μg/mL) | Test/Control (%) at drug concentration ([5]; 10 μg/mL) | Test/Control (%) at drug concentration ([6]; 1 μg/mL) | Test/Control (%) at drug concentration ([6]; 10 μg/mL) | Test/Control (%) at drug concentration ([7]; 1 μg/mL) | Test/Control (%) at drug concentration ([7]; 10 μg/mL) | Test/Control (%) at drug concentration ([8]; 1 μg/mL) | Test/Control (%) at drug concentration ([8]; 10 μg/mL)
CO[C@H]1[C@@H](OC)C[C@H](C)[C@@H](OC)C2=CC(=O)C=C(NC(=O)/C(C)=C/C=C\[C@H](C)[C@@H](OC(N)=O)/C(C)=C/[C@@H]1C)C2=O [Macbecin, macbecin] | not inhibited | not inhibited | – | – | – | – | – | – | – | – | – | – | – | –
CO[C@H]1[C@@H](OC)C[C@H](C)[C@@H](O)C2=CC(=O)C=C(NC(=O)/C(C)=C/C=C\[C@H](C)[C@@H](OC(N)=O)/C(C)=C/[C@@H]1C)C2=O [Compound 14, 15-O-desmethylmacbecin] | – | – | 17% | 2.3% | 58.3% | 7.7% | 63% | 6% | 65.3% | 15.3% | 49.3% | 4.7% | 49.7% | 6%
